In patent US10993957B2 (NuCana plc, priority 2011, dated 2021):
Read-outs that look alike come from different tables or passages of the source.

Columns and labels:
L1210.Hyor = experiment: Cytostatic assay, Mycoplasma hyorhinis-infected L1210 cells; settings: for % Retention: CC50 L1210 × 100 ÷ CC50 L1210/Hyor
From the text: Murine leukaemia L1210/0 and human T-lymphocyte CEM/0 cells were obtained from the American Type Culture Collection (ATCC) (Rockville, Md.). Human glioblastoma U87 cells were kindly provided by Dr. E. Menue (Institut Pasteur, Paris, France). […] S. Eriksson (currently at Uppsala University, Uppsala, Sweden) and Prof A. Karlsson (Karolinska Institute, Stockholm, Sweden). […] All cells were maintained in Dulbecco's modified Eagle's medium (DMEM) (Invitrogen, Carlsbad, Calif.) with 10% foetal bovine serum (FBS) (Biochrom AG, Berlin, Germany), 10 mM Hepes and 1 mM Sodium Pyruvate (Invitrogen). Cells were grown at 37° C. in a humidified incubator with a gas phase of 5% CO2.
Monolayer cells (U87 and U87.Hyor) were seeded in 48-well microtiter plates (Nunc™, Roskilde, Denmark) at 10,000 cells/well. After 24 hours, an equal volume of fresh medium containing the test compounds was added. On day 5, cells were trypsinized and counted in a Coulter counter (Analis, Suarlée, Belgium). Suspension cells (L1210/0, L1210/TK^−, L1210.Hyor, CEM/0, CEM/TK^−) were seeded in 96-well microtiter plates (Nunc™) at 60,000 cells/well in the presence of a given amount of the test compounds. The cells were allowed to proliferate for 48 h (L1210) or 72 hours (CEM) and were then counted in a Coulter counter.
Samples were also assayed for their % retention of activity in mycoplasma infected cells.
The L1210/0 cell cultures were infected with the mycoplasma species M. hyorhinis (cells designated: L1210.Hyor).

L1210/TK^− = experiment: Cytostatic assay, thymidine kinase-deficient L1210/TK^− cells; type: cell-based, murine
Cem/TK^− = experiment: Cytostatic assay, thymidine kinase-deficient CEM/TK^− cells; type: cell-based, human; settings: for IC50: read-out: IC50 Cem/TK^−; for CC50: read-out: CC50 Cem/TK^−
HeLa/TK^− = experiment: Cytostatic assay, HeLa/TK^− cells; type: cell-based; settings: for IC50: read-out: IC50 HeLa/TK^−; for CC50: read-out: CC50 HeLa/TK^−
From the text: (§1) The cell lines employed were L1210/0 (a leukemia cell line), FM3A/0 (a breast cancer cell line), Cem/0 (an acute lymphoblastic leukemia cell line) and HeLa (a cervical cell line).

HeLa = experiment: Cytostatic assay, HeLa cells; type: cell-based; settings: for IC50: read-out: IC50 HeLa; for CC50: read-out: CC50 HeLa
From the text: as §1

L1210/0 = experiment: Cytostatic assay, L1210/0 cells; type: cell-based, murine
From the text: as §1

Cem/0 = experiment: Cytostatic assay, CEM/0 cells; type: cell-based, human; settings: for IC50: read-out: IC50 Cem/0; for CC50: read-out: CC50 Cem/0
From the text: as §1

[1] = read-out: IC50 L1210.Hyor, Table 7
[2] = Table 6, read-out: IC50 L1210/TK^−
[3] = Table 6, read-out: IC50 L1210/0
[4] = Table 7, read-out: IC50 L1210/0
[5] = Mus musculus, L1210, read-out: IC50 L1210.Hyor
[6] = Mus musculus, L1210, Table 6, read-out: IC50 L1210/TK^−
[7] = Homo sapiens, CEM-TK(-), Table 6
[8] = Mus musculus, L1210/0, Table 6, read-out: IC50 L1210/0
[9] = Mus musculus, L1210/0, Table 7, read-out: IC50 L1210/0
[10] = Homo sapiens, CCRF-CEM, Table 6
[11] = Mus musculus, L1210, Table 1, read-out: CC50 L1210/TK^−
[12] = Homo sapiens, CEM-TK(-), Table 1
[13] = Mus musculus, L1210/0, Table 1, read-out: CC50 L1210/0
[14] = Homo sapiens, CCRF-CEM, Table 1

Row | Structure (SMILES) | IC50(L1210.Hyor)/IC50(L1210/0) (L1210.Hyor; Table 7) | IC50 (L1210.Hyor; [1]) | IC50 (L1210/TK^−; [2]) | IC50 (Cem/TK^−; Table 6) | IC50 (HeLa/TK^−; Table 6) | IC50 (HeLa; Table 6) | IC50 (L1210/0; [3]) | IC50 (L1210/0; [4]) | IC50 (Cem/0; Table 6) | IC50 (L1210.Hyor; [5]) | CC50 (L1210/TK^−; [11]) | CC50 (Cem/TK^−; [12]) | CC50 (L1210/0; [13]) | CC50 (Cem/0; [14]) | other results
1 | CCCCCOC(=O)C(NP(=O)(OCC1OC(n2cc(F)c(=O)[nH]c2=O)CC1O)Oc1cccc2ccccc12)C(C)CC (mixture of isomers) [Nap Pnt Ile] | 1.67 | 700 ± 74 nM | 12000 ± 2000 nM | 17000 ± 1000 nM | 11000 ± 1000 nM | 300 ± 20 nM | 220 ± 120 nM | 420 ± 21 nM | 460 ± 110 nM |  |  |  |  |  | 
2 | CCCCCOC(=O)C(Cc1ccccc1)NP(=O)(OCC1OC(n2cc(F)c(=O)[nH]c2=O)CC1O)Oc1cccc2ccccc12 (mixture of isomers) [Nap Pnt Phe] | 4.67 | 140 ± 7 nM | 2900 ± 1200 nM | 8300 ± 1000 nM | 6600 ± 500 nM | 40 nM | 26 ± 1 nM | 30 ± 3.9 nM | 100 nM |  |  |  |  |  | 
3 | CCC(C)C(NP(=O)(OCC1OC(n2cc(F)c(=O)[nH]c2=O)CC1O)Oc1ccccc1)C(=O)OCc1ccccc1 (mixture of isomers) [Ph Bn Ile] | 2.2 | 2200 ± 31 nM | 1100 ± 100 nM | 30000 ± 10000 nM | 25000 ± 11000 nM | 710 ± 150 nM | 76 ± 22 nM | 980 ± 390 nM | 1000 ± 100 nM |  |  |  |  |  | 
4 | C[C@H](NP(=O)(OC[C@H]1O[C@@H](n2cc(F)c(=O)[nH]c2=O)CC1O)Oc1cccc2ccccc12)C(=O)OC1Cc2ccccc2C1 (stereo partly drawn) [CPF597, 5-Fluoro-2′-deoxyuridine-5′-O-[1-naphthyl-(2-indanoxy-L-alaninyl)]phosphate] | 1.08 |  |  |  |  |  |  |  |  | 42 ± 40 nM |  |  |  |  | IC50 (L1210/TK^−; [6]): 40000 nM; IC50 (Cem/TK^−; [7]): 1000 ± 200 nM; IC50 (HeLa/TK^−; Homo sapiens, HeLa, Table 6): 7100 ± 2100 nM; IC50 (HeLa; Homo sapiens, HeLa, Table 6): 100 ± 60 nM; IC50 (L1210/0; [8]): 21 ± 2 nM; IC50 (L1210/0; [9]): 39 ± 19 nM; IC50 (Cem/0; [10]): 79 ± 18 nM
5 | COC(=O)[C@H](C)NP(=O)(OC[C@H]1O[C@@H](n2cc(F)c(=O)[nH]c2=O)CC1O)Oc1ccccc1 (stereo partly drawn) [CPF 382, 5-Fluoro-2′-deoxyuridine-5′-O-[phenyl(methoxy-L-alaninyl)] phosphate, reference compound] | 22 |  |  |  |  |  |  |  |  | 870 ± 280 nM | 37800 nM | 32700 nM | 25.5 nM | 346 nM | IC50 (L1210/TK^−; [6]): 41000 ± 3000 nM; IC50 (Cem/TK^−; [7]): 35000 ± 12000 nM; IC50 (HeLa/TK^−; Homo sapiens, HeLa, Table 6): 4700 ± 400 nM; IC50 (HeLa; Homo sapiens, HeLa, Table 6): 280 ± 140 nM; IC50 (L1210/0; [8]): 22 ± 7 nM; IC50 (L1210/0; [9]): 40 ± 16 nM; IC50 (Cem/0; [10]): 700 ± 370 nM
6 | CCOC(=O)[C@H](C)NP(=O)(O)OCC1OC(n2cc(F)c(=O)[nH]c2=O)CC1O (stereo partly shown) [CPF 437, reference compound] |  |  |  |  |  |  |  |  |  |  | > 100000 nM | > 100000 nM | 36000 ± 5000 nM | > 100000 nM | CC50 (HeLa/TK^−; Homo sapiens, HeLa, Table 1): > 100000 nM; CC50 (HeLa; Homo sapiens, HeLa, Table 1): > 100000 nM
7 | CC(C)OC(=O)[C@H](C)NP(=O)(O)OCC1OC(n2cc(F)c(=O)[nH]c2=O)CC1O (stereo partly shown) [CPF 438, reference compound] |  |  |  |  |  |  |  |  |  |  | 51000 ± 9000 nM | 32000 ± 2000 nM | 120 ± 20 nM | 2100 ± 600 nM | CC50 (HeLa/TK^−; Homo sapiens, HeLa, Table 1): 72000 nM; CC50 (HeLa; Homo sapiens, HeLa, Table 1): 3700 ± 500 nM
8 | C[C@H](NP(=O)(OC[C@H]1O[C@@H](n2cc(F)c(=O)[nH]c2=O)C[C@@H]1O)Oc1ccccc1)C(=O)OC1CCCCC1 (stereo partly drawn) [CPF 508, 5-Fluoro-2′deoxyuridine-5′-O-[phenyl (cyclohexoxy-L-alaninyl)] phosphate] | 1.25 | 40 ± 16 nM | 140 ± 20 nM | 1200 ± 10 nM | 5900 ± 400 nM | 180 ± 50 nM | 39 ± 1 nM | 32 ± 5 nM | 170 ± 70 nM |  |  |  |  |  | 
9 | CC(C)C(NP(=O)(OCC1OC(n2cc(F)c(=O)[nH]c2=O)CC1O)Oc1cccc2ccccc12)C(=O)OC1CCCCC1 (stereo not shown) [CPF 576] | 1.08 | 1290 ± 290 nM | 35000 ± 8000 nM | 46000 ± 14000 nM | 27000 ± 6000 nM | 670 ± 30 nM | 1100 ± 500 nM | 1200 ± 170 nM | 800 ± 280 nM |  |  |  |  |  | % Retention (L1210.Hyor): 51%; CC50 (L1210.Hyor; read-out: CC50 L1210/Hyor, Table 2, mycoplasma positive cells): 2730 nM; CC50 (L1210/0; Table 2, mycoplasma negative cells, read-out: CC50 L1210): 1400 nM
10 | O=C(OCc1ccccc1)C1CCCN1P(=O)(OC[C@H]1O[C@@H](n2cc(F)c(=O)[nH]c2=O)CC1O)Oc1cccc2ccccc12 (stereo partly drawn) [CPF 577, 5-Fluoro-2′-deoxyuridine-5′-O-[1-naphthyl(benzoxy-L-prolinyl)] phosphate] | 2.5 |  |  |  |  |  |  |  |  | 650 ± 70 nM |  |  |  |  | % Retention (L1210.Hyor): 36%; CC50 (L1210.Hyor; Mus musculus, L1210, read-out: CC50 L1210/Hyor): 630 nM; CC50 (L1210/TK^−; Mus musculus, L1210, read-out: CC50 L1210/TK^−): 25000 ± 8000 nM; IC50 (L1210/TK^−; Mus musculus, L1210, read-out: IC50 L1210/TK^−): 25000 ± 8000 nM; CC50 (Cem/TK^−; Homo sapiens, CEM-TK(-)): 32000 ± 9000 nM; IC50 (Cem/TK^−; Homo sapiens, CEM-TK(-)): 35000 ± 9000 nM; CC50 (HeLa/TK^−; Homo sapiens, HeLa): 26000 ± 1000 nM; IC50 (HeLa/TK^−; Homo sapiens, HeLa): 26000 ± 1000 nM; CC50 (HeLa; Homo sapiens, HeLa): 1200 nM; IC50 (HeLa; Homo sapiens, HeLa): 1200 nM; CC50 (L1210/0; Mus musculus, L1210/0, read-out: CC50 L1210): 230 nM; CC50 (L1210/0; Mus musculus, L1210/0, read-out: CC50 L1210/0): 210 ± 80 nM; IC50 (L1210/0; Mus musculus, L1210/0, read-out: IC50 L1210/0, Table 6): 210 ± 80 nM; IC50 (L1210/0; Mus musculus, L1210/0, read-out: IC50 L1210/0, Table 7): 260 ± 55 nM; CC50 (Cem/0; Homo sapiens, CCRF-CEM): 890 ± 350 nM; IC50 (Cem/0; Homo sapiens, CCRF-CEM): 890 ± 350 nM
